In patent US6914045B2, “Glycopeptide antibiotics” (Wyeth Holdings Corporation, priority 2001, dated 2005):
≈ marks a conversion by molar mass, not a printed value. Like-named read-outs stand apart in the source and are kept apart here.

Tests used:
Escherichia coli = assay: in vitro antibacterial evaluation, MIC by broth dilution; format: cell-based; details: 18 hours at 35° C.
Outline: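 Broth dilution per NCCLS standard M7-A2 in Muller-Hinton II […], with an inoculum of 5×10^5 CFU/mL and antibiotic spanning 64-0.06 μg/mL. The MIC is the lowest concentration that inhibits growth of the organism.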

Enterococcus sp. = assay: as above; format: cell-based; details: broth dilution, 18 hours at 35° C.
Outline: (§1)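 MIC = lowest antibiotic concentration preventing visible growth; inoculum 5×10^5 CFU/mL; drug range 64-0.06 μg/mL; Muller-Hinton II […]; NCCLS M7-A2 guidance.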

Staphylococcus sp. = assay: as above; format: cell-based; details: broth dilution, 18 hours at 35° C.
Outline: as §1

Streptococcus sp. = assay: as above; format: cell-based; details: broth dilution, 18 hours at 35° C.
Outline: as §1

[1] = test system: Gram-positive bacteria comprised of Staphylococcus sp., Streptococcus sp. and Enterococcus sp.; assay: in vitro antibacterial evaluation, MIC by broth dilution (strain not given); format: cell-based
Procedure: Methods for in vitro Antibacterial Evaluation (Table 1)
The minimum inhibitory concentration (MIC), the lowest concentration of the antibiotic which inhibits growth of the test organism, is determined by the broth dilution method using Muller-Hinton II […] (Baltimore Biological Laboratories) following the recommendations of the National Committee for Clinical Laboratory Standards [Methods for dilution antimicrobial susceptibility tests for bacteria that grow aerobically, approved standard M7-A2, National Committee for Clinical Laboratory Standards, Villanova, Pa.].
An inoculum level of 5×10^5 CFU/mL, and a range of antibiotic concentrations (64-0.06 μg/mL) is used. […] The test organisms include a spectrum of Gram-positive bacteria comprised of Staphylococcus sp., Streptococcus sp. and Enterococcus sp. These organisms include recent clinical isolates that are resistant to methicillin, penicillin and/or vancomycin.

[2] = test system: Staphylococcus aureus-SMITH (GC 4543); assay: acute lethal infection in mice; format: in vivo; details: Staphylococcus, read-out: median effective dose (ED50), Staphylococcus aureus-SMITH (GC 4543)
Outline: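 Female CD-1 mice (20±2 g) got an intraperitoneal bacterial challenge lethal to untreated controls within 24–48 hr. Compound was dosed intravenously 30 min after infection, five mice per dose. ED50 was calculated from 7-day survival pooled across 3 tests.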

CC(c1ccccc1)[C@@H]1NC(=O)CNC(=O)[C@H](CO)NC(=O)[C@H](C(O)C2CNC(=N)N2)NC(=O)[C@H](C(O)C2CNC(=N)N2)NC(=O)[C@H](Cc2ccc(O)cc2)NC1=O (stereo partly drawn) [Example 280b, Cyclo[glycyl-β-methylphenylalanyltyrosyl-3-(2-iminoimidazolidin-4-yl)seryl-3-(2-iminoimidazolidin-4-yl)serylseryl]]
MIC (Escherichia coli; ATCC25922, Escherichia coli (ATCC 25922), read-out: MIC, Escherichia coli (ATCC 25922)): 32 µg/mL (≈ 39.6 µM)
MIC (Escherichia coli; Escherichia coli (GC 4559), read-out: MIC, Escherichia coli (GC 4559)): 16 µg/mL (≈ 19.8 µM)
MIC (Escherichia coli; Escherichia coli (GC 4560), read-out: MIC, Escherichia coli (GC 4560)): 32 µg/mL (≈ 39.6 µM)
MIC (Enterococcus sp.; Enterococcus avium (GC 4558), read-out: MIC, Enterococcus avium (GC 4558)): 128 µg/mL (≈ 158 µM)
MIC (Enterococcus sp.; Enterococcus faecalis (ATCC 29212), read-out: MIC, Enterococcus faecalis (ATCC 29212)): > 128 µg/mL
MIC (Enterococcus sp.; Enterococcus faecalis (GC 4553), read-out: MIC, Enterococcus faecalis (GC 4553)): > 128 µg/mL
MIC (Enterococcus sp.; Enterococcus faecalis (GC 4554), read-out: MIC, Enterococcus faecalis (GC 4554)): > 128 µg/mL
MIC (Enterococcus sp.; Enterococcus faecalis (GC 6189), read-out: MIC, Enterococcus faecalis (GC 6189)): > 128 µg/mL
MIC (Enterococcus sp.; Enterococcus faecium (GC 2243), read-out: MIC, Enterococcus faecium (GC 2243)): 128 µg/mL (≈ 158 µM)
MIC (Enterococcus sp.; Enterococcus faecium (GC 4556), read-out: MIC, Enterococcus faecium (GC 4556)): > 128 µg/mL
MIC (Enterococcus sp.; Enterococcus faecium (GC 4557), read-out: MIC, Enterococcus faecium (GC 4557)): 64 µg/mL (≈ 79.1 µM)
MIC (Enterococcus sp.; strain ATCC 29212, read-out: MIC Enterococcus faecalis (ATCC 29212)): > 128 µg/mL
MIC (Enterococcus sp.; strain GC 2242, read-out: MIC Enterococcus faecalis (GC 2242)): > 128 µg/mL
MIC (Enterococcus sp.; strain GC 2243, read-out: MIC Enterococcus faecium (GC 2243)): 128 µg/mL (≈ 158 µM)
MIC (Enterococcus sp.; strain GC 2691, read-out: MIC Enterococcus faecalis (GC 2691)): > 128 µg/mL
MIC (Enterococcus sp.; strain GC 3059, read-out: MIC Enterococcus faecalis (GC 3059)): > 128 µg/mL
MIC (Enterococcus sp.; strain GC 4552, read-out: MIC Enterococcus faecalis (GC 4552)): > 128 µg/mL
MIC (Enterococcus sp.; strain GC 4553, read-out: MIC Enterococcus faecalis (GC 4553)): > 128 µg/mL
MIC (Enterococcus sp.; strain GC 4554, read-out: MIC Enterococcus faecalis (GC 4554)): > 128 µg/mL
MIC (Enterococcus sp.; strain GC 4556, read-out: MIC Enterococcus faecium (GC 4556)): > 128 µg/mL
MIC (Enterococcus sp.; strain GC 4557, read-out: MIC Enterococcus faecium (GC 4557)): 64 µg/mL (≈ 79.1 µM)
MIC (Enterococcus sp.; strain GC 4558, read-out: MIC Enterococcus avium (GC 4558)): 128 µg/mL (≈ 158 µM)
MIC (Enterococcus sp.; strain GC 6189, read-out: MIC Enterococcus faecalis (GC 6189)): > 128 µg/mL
MIC (Staphylococcus sp.; Staphylococcus, read-out: MIC Coagulase Negative Staphylococcus (GC 4547)): 32 µg/mL (≈ 39.6 µM)
MIC (Staphylococcus sp.; Staphylococcus, read-out: MIC Coagulase Negative Staphylococcus (GC 4548)): 128 µg/mL (≈ 158 µM)
MIC (Staphylococcus sp.; Staphylococcus, read-out: MIC Coagulase Negative Staphylococcus (GC 4549)): 32 µg/mL (≈ 39.6 µM)
MIC (Staphylococcus sp.; Staphylococcus, read-out: MIC Coagulase Negative Staphylococcus (GC 4551)): 128 µg/mL (≈ 158 µM)
MIC (Staphylococcus sp.; Staphylococcus, read-out: MIC Coagulase Negative Staphylococcus (GC 6257)): 32 µg/mL (≈ 39.6 µM)
MIC (Staphylococcus sp.; Staphylococcus, read-out: MIC Staphylococcus aureus-SMITH (GC 4543)): 64 µg/mL (≈ 79.1 µM)
MIC (Staphylococcus sp.; read-out: MIC Staphylococcus aureus (ATCC 29213)): 128 µg/mL (≈ 158 µM)
MIC (Staphylococcus sp.; read-out: MIC Staphylococcus aureus (GC 1131)): > 128 µg/mL
MIC (Staphylococcus sp.; read-out: MIC Staphylococcus aureus (GC 3051)): 128 µg/mL (≈ 158 µM)
MIC (Staphylococcus sp.; read-out: MIC Staphylococcus aureus (GC 3053)): > 128 µg/mL
MIC (Staphylococcus sp.; read-out: MIC Staphylococcus aureus (GC 4541)): 128 µg/mL (≈ 158 µM)
MIC (Staphylococcus sp.; read-out: MIC Staphylococcus aureus (GC 4542)): 128 µg/mL (≈ 158 µM)
MIC (Staphylococcus sp.; read-out: MIC Staphylococcus aureus (GC 4544)): 128 µg/mL (≈ 158 µM)
MIC (Staphylococcus sp.; read-out: MIC Staphylococcus aureus (GC 4545)): 64 µg/mL (≈ 79.1 µM)
MIC (Staphylococcus sp.; read-out: MIC Staphylococcus haemolyticus (GC 4546)): 32 µg/mL (≈ 39.6 µM)
MIC Staphylococcus aureus (ATCC 29213) (Staphylococcus sp.; strain ATCC 29213): 128 µg/mL (≈ 158 µM)
MIC Staphylococcus aureus (GC 1131) (Staphylococcus sp.; strain GC 1131): >128 µg/mL
MIC Staphylococcus aureus (GC 3051) (Staphylococcus sp.; strain GC 3051): 128 µg/mL (≈ 158 µM)
MIC Staphylococcus aureus (GC 3053) (Staphylococcus sp.; strain GC 3053): >128 µg/mL
MIC Staphylococcus aureus (GC 4541) (Staphylococcus sp.; strain GC 4541): 128 µg/mL (≈ 158 µM)
MIC Staphylococcus aureus (GC 4542) (Staphylococcus sp.; strain GC 4542): 128 µg/mL (≈ 158 µM)
MIC Staphylococcus aureus (GC 4544) (Staphylococcus sp.; strain GC 4544): 128 µg/mL (≈ 158 µM)
MIC Staphylococcus aureus (GC 4545) (Staphylococcus sp.; strain GC 4545): 64 µg/mL (≈ 79.1 µM)
MIC Staphylococcus haemolyticus (GC 4546) (Staphylococcus sp.; strain GC 4546): 32 µg/mL (≈ 39.6 µM)
MIC Coagulase Negative Staphylococcus (GC 4547) (Staphylococcus sp.; strain GC 4547): 32 µg/mL (≈ 39.6 µM)
MIC Coagulase Negative Staphylococcus (GC 4548) (Staphylococcus sp.; strain GC 4548): 128 µg/mL (≈ 158 µM)
MIC Coagulase Negative Staphylococcus (GC 4549) (Staphylococcus sp.; strain GC 4549): 32 µg/mL (≈ 39.6 µM)
MIC Coagulase Negative Staphylococcus (GC 4551) (Staphylococcus sp.; strain GC 4551): 128 µg/mL (≈ 158 µM)
MIC Coagulase Negative Staphylococcus (GC 6257) (Staphylococcus sp.; strain GC 6257): 32 µg/mL (≈ 39.6 µM)
MIC Staphylococcus aureus-SMITH (GC 4543) (Staphylococcus sp.; strain SMITH GC 4543): 64 µg/mL (≈ 79.1 µM)
MIC (Streptococcus sp.; strain ATCC 6301, read-out: MIC Streptococcus pneumoniae (ATCC 6301)): 32 µg/mL (≈ 39.6 µM)
MIC (Streptococcus sp.; strain GC 1894, read-out: MIC Streptococcus pneumoniae (GC 1894)): 64 µg/mL (≈ 79.1 µM)
MIC (Streptococcus sp.; strain GC 4563, read-out: MIC Streptococcus pyogenes (GC 4563)): 64 µg/mL (≈ 79.1 µM)
MIC (Streptococcus sp.; strain GC 4564, read-out: MIC Streptococcus agalactiae (GC 4564)): 128 µg/mL (≈ 158 µM)
MIC (Streptococcus sp.; strain GC 4565, read-out: MIC Streptococcus pneumoniae (GC 4565)): 128 µg/mL (≈ 158 µM)
MIC ([1]; Table 2 section r2574-r2600, column 1, 18 hours at 35° C., read-out: MIC, strain of column 1): 128 µg/mL (≈ 158 µM)
MIC ([1]; Table 2 section r2574-r2600, column 2, 18 hours at 35° C., read-out: MIC, strain of column 2): 64 µg/mL (≈ 79.1 µM)
MIC ([1]; Table 2 section r2574-r2600, column 3, 18 hours at 35° C., read-out: MIC, strain not given): 128 µg/mL (≈ 158 µM)
MIC ([1]; Table 2 section r2574-r2600, column 5, 18 hours at 35° C., read-out: MIC, strain of column 5): 64 µg/mL (≈ 79.1 µM)
MIC ([1]; Table 2 section r2574-r2600, column 7, 18 hours at 35° C., read-out: MIC, strain not given): > 128 µg/mL
MIC ([1]; Table 2 section r2574-r2600, column 9, 18 hours at 35° C., read-out: MIC, strain of column 9): > 128 µg/mL
MIC ([1]; Table 2 section r2574-r2600, column 10, 18 hours at 35° C., read-out: MIC, strain of column 10): > 128 µg/mL
ED50 [2]: > 8 mg/kg
